In ChEMBL document CHEMBL3112423, “Selective EP4 Antagonist May Be Useful in Treating Arthritis and Arthritic Pain” (ACS Med Chem Lett, 2014):

Legend:
[1] = biological target: T1, Prostaglandin E2 receptor EP3 subtype (Homo sapiens, UniProt P43115); test: Displacement of [3H]-PGE2 from human EP3 receptor expressed in HEK293 cell membranes after 90 mins by topcount scintillation counting analysis
T1 sequence (P43115 whole entry): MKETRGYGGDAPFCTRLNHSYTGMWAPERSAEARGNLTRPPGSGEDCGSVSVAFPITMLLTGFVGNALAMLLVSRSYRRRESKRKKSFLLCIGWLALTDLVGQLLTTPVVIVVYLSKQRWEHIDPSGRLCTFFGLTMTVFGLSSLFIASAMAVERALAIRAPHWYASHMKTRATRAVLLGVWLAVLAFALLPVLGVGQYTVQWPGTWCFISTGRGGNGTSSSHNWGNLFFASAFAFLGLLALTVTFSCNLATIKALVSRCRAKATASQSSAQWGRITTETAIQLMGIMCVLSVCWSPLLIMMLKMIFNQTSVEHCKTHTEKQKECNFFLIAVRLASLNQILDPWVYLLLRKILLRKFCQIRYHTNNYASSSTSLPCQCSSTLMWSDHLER

[2] = biological target: T2, Prostaglandin E2 receptor EP1 subtype (Homo sapiens, UniProt P34995); test: Displacement of [3H]-PGE2 from human EP1 receptor expressed in recombinant HEK293 cell membranes after 90 mins by topcount scintillation counting analysis
T2 sequence (P34995 whole entry): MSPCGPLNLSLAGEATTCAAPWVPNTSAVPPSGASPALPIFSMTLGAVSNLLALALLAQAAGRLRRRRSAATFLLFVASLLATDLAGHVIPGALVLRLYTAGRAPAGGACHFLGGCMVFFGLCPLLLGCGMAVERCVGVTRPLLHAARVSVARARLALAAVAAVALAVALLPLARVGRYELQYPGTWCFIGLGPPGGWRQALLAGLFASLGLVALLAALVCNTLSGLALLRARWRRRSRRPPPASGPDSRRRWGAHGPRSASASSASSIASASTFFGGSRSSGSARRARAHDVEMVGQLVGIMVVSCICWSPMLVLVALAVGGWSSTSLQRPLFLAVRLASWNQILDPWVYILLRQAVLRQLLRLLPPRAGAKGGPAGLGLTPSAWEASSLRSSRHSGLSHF

Ki [1]: > 14 µM
Ki [2]: > 17.5 µM
SMILES: C[C@H](NC(=O)[C@H]1CCCCN1CCOc1ccccc1)c1ccc(C(=O)O)cc1
